This note sets out measurements from the Deep4Chem optical property database.

This data set in a line: solvent given as SMILES.

SMILES strings stand for the structures. Values joined by “and” are separate entries in the source; they are usually repeats but may differ in a detail not shown here. Equal entries are not always repeated.

On to `CCOC(=O)CN1C(=O)C2=C(c3ccc(N4CCCCC4)cc3)N(CC(=O)OCC)C(=O)C2=C1c1ccccc1`, for which the emission maximum runs as follows: (in CC#N) 587 nm; (in CS(C)=O) 601 nm; (in Cc1ccccc1) 563 nm.
For the setting “in Cc1ccccc1”, `CC(C)(C)c1ccc2c(c1)c1cc(C(C)(C)C)ccc1n2-c1cc(N2c3ccccc3C(c3ccccc3)(c3ccccc3)c3ccccc32)cc(-n2c3ccc(C(C)(C)C)cc3c3cc(C(C)(C)C)ccc32)c1C#N` gave an emission maximum of 458 nm.
In the case of `CCCCCCCCCCOc1cc(OCCCCCCCCCC)cc(C2=C3C(/C=C/c4ccc(OC)cc4)=CC(/C=C/c4ccc(OC)cc4)=[N+]3[B-](F)(F)n3c(/C=C/c4ccc(OC)cc4)cc(C=Cc4ccc(OC)cc4)c32)c1`, the emission maximum (in ClC(Cl)Cl) is reported as 710 nm.
As to `COc1ccc(-c2c3cc4ccccc4cc3c(C#Cc3ccccc3)c3cc4ccccc4cc23)cc1`, the emission maximum (in ClCCl) was found to be 697 nm.
Regarding `Cc1ccc(C(=O)/C=C2\C(=O)Nc3ccccc32)cc1C`, the emission maximum was 387 nm (in C1CCCCC1); 397 nm (in C1COCCO1); 413 nm (in CC#N); 400 nm (in CC(C)(C)O); 403 nm (in CC(C)O); 387 nm (in CCCCCC). In addition, the emission maximum by setting is: (in CCCCO) 401 nm; (in CCOC(C)=O) 395 nm; (in CN(C)C=O) 417 nm; (in CO) 399 nm; (in ClCCl) 418 nm; (in O) 409 nm.
On to `CCCCCCCN1C(=CC2=C([O-])C(=CC3=[N+](CCCCCCC)c4ccccc4C3(C)C)C2=C(C#N)C#N)Sc2ccccc21`, for which the emission maximum reads like this: (in C1COCCO1) 709 nm; (in CCO) 699 nm; (in CN(C)C=O) 702 nm; (in ClC(Cl)Cl) 709 nm.
On to `N#Cc1cc(-n2c3ccccc3c3ccccc32)c(-n2c3ccccc3c3ccccc32)cc1C#N`, for which the emission maximum reads like this: (in C1CCOC1) 501 nm; (in Cc1ccccc1) 473 nm; (in c1ccc2c(c1)c1ccccc1n2-c1ccc(-c2ccc(-n3c4ccccc4c4ccccc43)cc2)cc1) 474 nm.
`O=C(O)CCCCCn1/c(=C/C=C/C2=[N+](CCCCCC(=O)O)c3cccc4cccc2c34)c2cccc3cccc1c32` gave an emission maximum (in CO) of 773 nm.
The compound `Clc1ccc(/C=C/c2ccncn2)cc1` returned an emission maximum (in ClCCl) of 411 nm.
As to `COc1nc(Nc2ccc3c4cccc5cccc(c6cccc2c63)c54)nc(OC)n1`, the emission maximum was 478 nm (in C1COCCO1), 479 nm (in CC#N), 477 nm (in CCCCOCCCC) and 477 nm (in CCOC(C)=O).
`O=[N+]([O-])c1ccc(NCCN(Cc2c3ccccc3cc3ccccc23)c2ccc([N+](=O)[O-])cc2[N+](=O)[O-])c([N+](=O)[O-])c1`: the emission maximum by setting is: (in C1CCCCC1) 419 nm; (in C1CCOC1) 416 nm; (in CC#N) 389 nm; (in CC(C)=O) 388 nm; (in CCO) 388 nm; (in CN(C)C=O) 409 nm. Besides, the emission maximum was 389 nm (in CO) and 417 nm (in ClC(Cl)Cl).
Under “in ClC(Cl)Cl”, `CCCCn1c2ccccc2c2ccc3c4cc(-c5cccc(F)c5)ccc4n(CCCC)c3c21` had an emission maximum of 398 nm.
Consider `CN1C(=O)/C(=C/c2ccncc2)N=C1/C=C/c1ccccc1`, for which the emission maximum was found to be 546 nm (in C1COCCO1); 550 nm (in CC#N); 550 nm (in CCO); 544 nm (in CCOC(C)=O); 560 nm (in O).
For the setting “in C1CCCCC1”, `CC(C)(C)[Si](C)(C)c1ccc([Si](C)(C)C(C)(C)C)c2ccccc12` returned an emission maximum of 335 nm.
With `CN(C)c1ccc(-c2nc3c(c4c2-c2ccccc2CC4)-c2ccccc2CC3)cc1`, the emission maximum is, setting by setting: (in C1CCOC1) 452 nm; (in CC#N) 463 nm; (in CCCCCC) 422 nm; (in CCOC(C)=O) 449 nm; (in CO) 460 nm; (in CS(C)=O) 470 nm. The emission maximum (in Cc1ccccc1) was determined as 436 nm and the emission maximum (in ClCCl) is 449 nm.
With `c1cc2c3c(c1)-c1cccc4cccc(c14)B3c1cccc3cccc-2c13`, the emission maximum (in Cc1ccccc1) came out at 491 nm.
In the case of `CCOC(=O)COc1ccccc1C(c1c(C)[nH]c2ccccc12)c1c(C)[nH]c2ccccc12`, the emission maximum runs as follows: (in C1CCCCC1) 328 nm; (in CC#N) 348 nm; (in CO) 349 nm; (in O) 350 nm.
On to `COc1c(-c2ccc(N(C)C)cc2)oc2ccccc2c1=O`, for which the emission maximum (in C1CCCCC1) was determined as 413.89 nm, the emission maximum (in CC#N) is 490.48 nm and the emission maximum (in CCOC(C)=O) came to 468.65 nm.
For the setting “in CCCCCC”, `CC(C)[Si](C#Cc1ccc(C#C[Si](C(C)C)(C(C)C)C(C)C)c2nc3c(ccc4ccccc43)nc12)(C(C)C)C(C)C` returned an emission maximum of 444 nm.
In turn, `COC(=O)c1ccc(Oc2ccc3c4c(cccc24)C(=O)N(c2c(C(C)C)cccc2C(C)C)C3=O)cc1` had an emission maximum (in ClCCl) of 421 nm.
As to `O=c1c2ccccc2c2c3c(cccc13)c(-c1ccccc1)c1c3cccc4cccc(c43)c12`, the emission maximum is 519 nm (in CC#N) and 562 nm (in CO).
Under “in O”, `O=S(=O)([O-])c1cccc2c(O)cccc12` yielded an emission maximum of 426 nm.
With `N#Cc1cc2ccc3cc(C#N)c4ccccc4c3c2c2ccccc12`, for the setting “in ClC(Cl)Cl”, the emission maximum came out at 429 nm.
In the case of `COc1ccc(-c2cc(-c3ccccc3)nn2C)cc1`, the emission maximum (in ClCCl) stood at 333 nm.
Under “in ClCCl”, `CCN(CC)c1ccc2c(c1)oc(=O)c1cnc3c(cnn3-c3ccccc3)c12` showed an emission maximum of 441 nm.
In turn, `Cc1ccc(N(c2ccc(C)cc2)c2c3ccccc3c(N(c3ccc(C)cc3)c3ccc(C)cc3)c3ccccc23)cc1` returned an emission maximum (in Cc1ccccc1) of 533 nm.
Consider `O=C(c1ccc(N2c3ccccc3Oc3ccccc32)cc1)c1cccc(C(=O)c2ccc(N3c4ccccc4Oc4ccccc43)cc2)c1`, for which the emission maximum (in Cc1ccccc1) is given as 566 nm and the emission maximum (in c1cc(-c2cccc(-n3c4ccccc4c4ccccc43)c2)cc(-n2c3ccccc3c3ccccc32)c1) turned out to be 541 nm.
With `COc1ccc(C(=O)/C=C/c2ccc(N(C)C)cc2)cc1OC`, the emission maximum was found to be 500 nm (in C1CCOC1); 525 nm (in CC#N); 513 nm (in CC(=O)O); 511 nm (in CC(C)=O); 533 nm (in CCO); 523 nm (in CN(C)C=O). For the same compound, the emission maximum came to 535 nm (in CO), 468 nm (in Cc1ccccc1), 507 nm (in ClC(Cl)Cl) and 470 nm (in c1ccccc1).
Consider `CN(C)c1ccc2nc(-c3ccc(C=C(C#N)C#N)cc3)sc2c1`, for which the emission maximum worked out at 526 nm (in C1CCCCC1) and 683 nm (in ClC(Cl)Cl).
For the compound `CCCCCCCCOc1ccc(-c2c3c4n(c(-c5ccc(OCCCCCCCC)cc5)c3c3n2[B-](F)(F)[n+]2c(ccc5cc(C(C)(C)C)ccc52)C=3C#N)[B-](F)(F)[n+]2c(ccc3cc(C(C)(C)C)ccc32)C=4C#N)cc1`, the emission maximum (in ClC(Cl)Cl) came out at 773 nm.
Still for that read-out and setting: next, `N#Cc1c(C#N)c2cc(Cl)ccc2c2ccc(Cl)cc12`: 388 nm.
For `C[NH+](C)c1c2ccccc2cc2ccccc12`, where the note is “in O”, the emission maximum stood at 400 nm.
On to `CC(=O)[B-]1(C(C)=O)OC(c2ccccc2)=CC(c2ccc3ccccc3c2)=[O+]1`, for which the emission maximum by setting is: (in CC#N) 510 nm; (in ClC(Cl)(Cl)Cl) 419 nm.
Turning to `O=c1oc2c(ccc3ccccc32)nc1-c1ccccc1`, the emission maximum by setting is: (in CC#N) 490 nm; (in CCCCCC) 459 nm; (in CO) 511 nm; (in c1ccccc1) 478 nm and 468 nm.
On to `COC(=O)/C=C/c1ccc2ccc3cccc4ccc1c2c34`, for which the emission maximum (in C1CCOC1) was determined as 425.5 nm; the emission maximum (in C1COCCO1) came out at 422.5 nm; the emission maximum (in C=CC#N) was 447.5 nm; the emission maximum (in CC#N) was determined as 450 nm; the emission maximum (in CC(C)=O) amounted to 438 nm; the emission maximum (in CCCCCC) is on record as 406.5 nm. The emission maximum is reported as 423 nm (in CCOC(C)=O), 462.5 nm (in CO), 423 nm (in Cc1ccccc1) and 442 nm (in ClCCl).
`COC(=O)/C(C#N)=c1\s/c(=c2/s/c(=C(/C#N)C(=O)OC)c3cc(-c4ccc(OC)cc4)sc23)c2sc(-c3ccc(OC)cc3)cc12` displayed an emission maximum (in Cc1ccccc1) of 680 nm.
Regarding `Cc1ccc(C2=C3C=CC(C#Cc4ccccc4)=[N+]3[B-](F)(F)n3c(C#Cc4ccccc4)ccc32)cc1`, the emission maximum was found to be 626 nm (in C1CCCCC1); 625 nm (in C1CCOC1); 626 nm (in C1COCCO1); 621 nm (in CCOC(C)=O); 622 nm (in CO); 629 nm (in Cc1ccccc1). Further, the emission maximum by setting is: (in ClC(Cl)Cl) 628 nm; (in ClCCl) 628 nm.
`CCN1C(=O)C(C2C(=O)c3c4ccccc4cc4cc5ccccc5c2c34)C(=O)N(CC)C1=S` (stereo unspecified) showed an emission maximum (in C1CCOC1) of 571 nm, an emission maximum (in CCCCCC) of 544 nm, an emission maximum (in Cc1ccccc1) of 564 nm and an emission maximum (in ClCCl) of 582 nm.
For the setting “in ClC(Cl)Cl”, `O=C1CC(c2ccc(C(F)(F)F)cc2)c2c(c3ccccc3c3nc4ccccc4nc23)O1` (stereo unspecified) displayed an emission maximum of 433 nm.
As for `c1ccc2c(c1)c1ccccc1n2-c1cc(-c2nc3ccccn3n2)cc(-n2c3ccccc3c3ccccc32)c1`, the emission maximum (in Cc1ccccc1) came out at 373 nm.
Turning to `CC1=C(Br)C(C)=[N+]2C1=C(c1c(-c3ccccn3)nc3ccccn13)c1c(C)c(Br)c(C)n1[B-]2(F)F`, the emission maximum (in ClCCl) was determined as 571 nm.
Consider `FC(F)(F)C(F)(F)C(F)(F)c1nc2c(-c3ccsc3)cc3c4cc(-c5ccsc5)c5nc(C(F)(F)C(F)(F)C(F)(F)F)nc6c(-c7ccsc7)cc(c7cc(-c8ccsc8)c(n1)c2c37)c4c56`, for which the emission maximum (in C1CCOC1) turned out to be 574 nm.
